System: Casein-Starch-Induced Hypercholesterolemia in Rabbits
Assay: Casein-starch-induced hypercholesterolemia in rabbits (serum lipid profile)
Type: in vivo
Conditions: for LDL-C level / serum total cholesterol level: mean ± S.E.M., in mg/dL (unit assumed)
Experimental: The observed unexpected synergistic lipid lowering effect of combination of Extract-A as described herein and ezetimibe is evidenced by the test conducted in rabbits. Rabbits of either sex were procured from Central Animal House facility; Panacea Biotec Ltd., India. Animals weighing […] at the time of testing were used throughout. All animals were dosed sequentially by the oral route with Extract-A and/or ezetimibe suspended in 0.5% of carboxymethyl cellulose (CMC). A dosing volume of 2 ml/kg was used for each sequential suspension.
The fasting serum lipid profile (TC, TGs, LDL-C, HDL-C) was estimated before initiation of the experiment. […] Hypercholesterolemia was induced by feeding rabbits with wheat casein-starch diet (g/kg) containing wheat flour 333, cellulose 300, casein 270, water 20, maize oil 10, and mineral mixture (Kroon et al., 1982) for 8 weeks. Feed consumption was restricted to 100 g/day per animal. The cholesterol level was estimated every 15 days. After 60 days animals with total cholesterol level>150 mg/dl were randomized to treatment (n=6/group). Thereafter, various doses of Extract-A and/or ezetimibe were administered for another 60 days during which animals were fed with casein-starch diet. Blood samples were collected from fasted rabbits and analyzed for any alteration in serum lipid profile after 60 days of test compound(s) administration.
All the data are expressed as mean±S.E.M. (Standard Error of Mean). Student t-test was used to compare the lipid parameters between animals fed with standard and hypercholesterolemic diet. The difference between various drug treated groups was analyzed by ANOVA followed by Dunnett's test. A value of P<0.05 was considered as statistically significant.

[1] = Extract-A 100 and 200 mg/kg p.o., ezetimibe 5 and 10 mg/kg p.o., alone or in combination, vs hypercholesterolemic control rabbits
[2] = ezetimibe 5 mg/kg p.o., day 0 (before treatment)
[3] = ezetimibe 5 mg/kg p.o., day 15 (before treatment)
[4] = ezetimibe 5 mg/kg p.o., day 30 (before treatment)
[5] = ezetimibe 5 mg/kg p.o., day 60 (start of treatment)
[6] = ezetimibe 5 mg/kg p.o., day 75 (treatment from day 60)
[7] = ezetimibe 5 mg/kg p.o., day 90 (treatment from day 60)
[8] = ezetimibe 5 mg/kg p.o., day 105 (treatment from day 60)
[9] = ezetimibe 5 mg/kg p.o., day 120 (treatment from day 60)
[10] = ezetimibe 10 mg/kg p.o., day 0 (before treatment)
[11] = ezetimibe 10 mg/kg p.o., day 15 (before treatment)
[12] = ezetimibe 10 mg/kg p.o., day 30 (before treatment)
[13] = ezetimibe 10 mg/kg p.o., day 60 (start of treatment)
[14] = ezetimibe 10 mg/kg p.o., day 75 (treatment from day 60)
[15] = ezetimibe 10 mg/kg p.o., day 90 (treatment from day 60)
[16] = ezetimibe 10 mg/kg p.o., day 105 (treatment from day 60)
[17] = ezetimibe 10 mg/kg p.o., day 120 (treatment from day 60)

O=C1[C@H](CC[C@H](O)c2ccc(F)cc2)[C@@H](c2ccc(O)cc2)N1c1ccc(F)cc1 [Ez, ezetimibe]
LDL-C levels (result in words) [1]: reversed
TC levels (result in words) [1]: reversed
LDL-C level [2]: 22.40 ± 8.81
serum total cholesterol level [2]: 52.50 ± 3.59
LDL-C level [3]: 76.13 ± 3.11
serum total cholesterol level [3]: 103.50 ± 2.23
LDL-C level [4]: 131.53 ± 6.89
serum total cholesterol level [4]: 169.83 ± 6.16
LDL-C level [5]: 174.3 ± 8.02
serum total cholesterol level [5]: 219.83 ± 7.5
LDL-C level [6]: 194.07 ± 4.29
serum total cholesterol level [6]: 236.50 ± 3.47
LDL-C level [7]: 179.47 ± 3.74
serum total cholesterol level [7]: 222.83 ± 2.77
LDL-C level [8]: 156.47 ± 12.92
serum total cholesterol level [8]: 201.00 ± 12.6
LDL-C level [9]: 129.17 ± 9.02
serum total cholesterol level [9]: 181.50 ± 8.55
LDL-C level [10]: 23.70 ± 7.98
serum total cholesterol level [10]: 46.50 ± 2.2
LDL-C level [11]: 72.70 ± 3.92
serum total cholesterol level [11]: 106.83 ± 3.38
LDL-C level [12]: 125.07 ± 10.94
serum total cholesterol level [12]: 162.50 ± 11.54
LDL-C level [13]: 197.03 ± 13.55
serum total cholesterol level [13]: 234.50 ± 14.24
LDL-C level [14]: 179.83 ± 9.83
serum total cholesterol level [14]: 220.33 ± 8.73
LDL-C level [15]: 152.80 ± 6.17
serum total cholesterol level [15]: 197.66 ± 5.42
LDL-C level [16]: 126.60 ± 6.85
serum total cholesterol level [16]: 172.16 ± 6.58
LDL-C level [17]: 124.63 ± 6.55
serum total cholesterol level [17]: 171.50 ± 4.7

Reference: patent US20070027218A1, “Pharmaceutical compositions comprising higher primary alcohols and ezetimibe and process of preparation thereof” (PANACEA BIOTEC LTD., priority 2004, published 2007)
